Measurements as given in the supplement of paper PMC10307832.

compound: Cc1ccc2nc(NCCN)c3ncc(C)n3c2c1 + CS(=O)(=O)N1CCN(Cc2cc3nc(-c4cccc5[nH]ncc45)nc(N4CCOCC4)c3s2)CC1 [Pictilisib] (partner 1 µM); assay: relative viability (nuclei count vs DMSO), 5 days (fraction); higher = more cells survive; details: first compound 0.04 µM
In short: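 Values are medians from duplicate plates. Each reflects relative viability, defined as the nuclei count of treated wells over that of vehicle wells. Lung cancer cell lines in 1536-well plates were pin-tool dosed one day after seeding with one drug alone or with a fixed anchor-drug dose plus five library-drug doses (not always all listed) in √10 steps, then fixed, stained and imaged at 4× after 5 days.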

Row | Cell Line | relative viability
1 | NCI-H2085 | 0.515
2 | Calu-6 | 1
3 | HCC-366 | 0.131
4 | NCI-H1666 | 0.372
5 | NCI-H596 | 0.384
6 | LK-2 | 0.585
7 | NCI-H2087 | 1.05
8 | NCI-H358 | 0.348
9 | NCI-H2170 | 0.31
10 | H3255 | 0.555
11 | COR-L23 | 0.866
12 | COR-L 105 | 0.507
13 | IA-LM | 0.343
14 | LOU-NH91 | 0.528
15 | NCI-H1793 | 0.393
16 | NCI-H2405 | 0.442

Row | Cell Line | relative viability
17 | HOP-62 | 0.829
18 | HCC-44 | 0.692
19 | A549 | 0.587
20 | SK-MES-1 | 0.411
21 | LU99A | 0.346
22 | BEN | 0.628
23 | HARA | 0.524
24 | HCC-78 | 0.229
25 | NCI-H322M | 0.521
26 | LCLC-97TM1 | 0.208
27 | NCI-H2009 | 0.866
28 | A-427 | 0.743
29 | NCI-H661 | 0.511
30 | NCI-H1734 | 0.457
31 | NCI-H460 | 0.368
32 | NCI-H2347 | 0.762

same assay, conditions: first compound 0.1265 µM

Row | Cell Line | relative viability
33 | NCI-H2085 | 0.436
34 | Calu-6 | 0.781
35 | HCC-366 | 0.123
36 | NCI-H1666 | 0.478
37 | NCI-H596 | 0.37
38 | LK-2 | 0.547
39 | NCI-H2087 | 0.824
40 | NCI-H358 | 0.394
41 | NCI-H2170 | 0.337
42 | H3255 | 0.431
43 | COR-L23 | 0.7
44 | COR-L 105 | 0.399
45 | IA-LM | 0.335
46 | LOU-NH91 | 0.534
47 | NCI-H1793 | 0.381
48 | NCI-H2405 | 0.443

Row | Cell Line | relative viability
49 | HOP-62 | 0.567
50 | HCC-44 | 0.777
51 | A549 | 0.439
52 | SK-MES-1 | 0.345
53 | LU99A | 0.328
54 | BEN | 0.584
55 | HARA | 0.362
56 | HCC-78 | 0.23
57 | NCI-H322M | 0.566
58 | LCLC-97TM1 | 0.248
59 | NCI-H2009 | 0.767
60 | A-427 | 0.653
61 | NCI-H661 | 0.514
62 | NCI-H1734 | 0.481
63 | NCI-H460 | 0.411
64 | NCI-H2347 | 0.673

same assay, conditions: first compound 0.4 µM

Row | Cell Line | relative viability
65 | NCI-H2085 | 0.429
66 | Calu-6 | 0.989
67 | HCC-366 | 0.163
68 | NCI-H1666 | 0.402
69 | NCI-H596 | 0.285
70 | LK-2 | 0.604
71 | NCI-H2087 | 0.816
72 | NCI-H358 | 0.364
73 | NCI-H2170 | 0.361
74 | H3255 | 0.487
75 | COR-L23 | 0.741
76 | COR-L 105 | 0.422
77 | IA-LM | 0.188
78 | LOU-NH91 | 0.514
79 | NCI-H1793 | 0.383
80 | NCI-H2405 | 0.441

Row | Cell Line | relative viability
81 | HOP-62 | 0.492
82 | HCC-44 | 0.595
83 | A549 | 0.451
84 | SK-MES-1 | 0.341
85 | LU99A | 0.327
86 | BEN | 0.596
87 | HARA | 0.436
88 | HCC-78 | 0.222
89 | NCI-H322M | 0.571
90 | LCLC-97TM1 | 0.187
91 | NCI-H2009 | 0.841
92 | A-427 | 0.596
93 | NCI-H661 | 0.421
94 | NCI-H1734 | 0.451
95 | NCI-H460 | 0.402
96 | NCI-H2347 | 0.59

same assay, conditions: first compound 1.265 µM

Row | Cell Line | relative viability
97 | NCI-H2085 | 0.551
98 | Calu-6 | 0.836
99 | HCC-366 | 0.114
100 | NCI-H1666 | 0.554
101 | NCI-H596 | 0.309
102 | LK-2 | 0.406
103 | NCI-H2087 | 0.981
104 | NCI-H358 | 0.379
105 | NCI-H2170 | 0.292
106 | H3255 | 0.38
107 | COR-L23 | 0.85
108 | COR-L 105 | 0.468
109 | IA-LM | 0.238
110 | LOU-NH91 | 0.56
111 | NCI-H1793 | 0.389
112 | NCI-H2405 | 0.511

Row | Cell Line | relative viability
113 | HOP-62 | 0.589
114 | HCC-44 | 0.535
115 | A549 | 0.451
116 | SK-MES-1 | 0.378
117 | LU99A | 0.349
118 | BEN | 0.481
119 | HARA | 0.39
120 | HCC-78 | 0.215
121 | NCI-H322M | 0.512
122 | LCLC-97TM1 | 0.216
123 | NCI-H2009 | 0.762
124 | A-427 | 0.691
125 | NCI-H661 | 0.35
126 | NCI-H1734 | 0.409
127 | NCI-H460 | 0.302
128 | NCI-H2347 | 0.645

same assay, conditions: first compound 4 µM

Row | Cell Line | relative viability
129 | NCI-H2085 | 0.422
130 | Calu-6 | 0.475
131 | HCC-366 | 0.116
132 | NCI-H1666 | 0.449
133 | NCI-H596 | 0.411
134 | LK-2 | 0.463
135 | NCI-H2087 | 0.984
136 | NCI-H358 | 0.367
137 | NCI-H2170 | 0.319
138 | H3255 | 0.456
139 | COR-L23 | 0.741
140 | COR-L 105 | 0.31
141 | IA-LM | 0.347
142 | LOU-NH91 | 0.475
143 | NCI-H1793 | 0.309
144 | NCI-H2405 | 0.396

Row | Cell Line | relative viability
145 | HOP-62 | 0.71
146 | HCC-44 | 0.565
147 | A549 | 0.345
148 | SK-MES-1 | 0.35
149 | LU99A | 0.321
150 | BEN | 0.556
151 | HARA | 0.418
152 | HCC-78 | 0.217
153 | NCI-H322M | 0.503
154 | LCLC-97TM1 | 0.199
155 | NCI-H2009 | 0.765
156 | A-427 | 0.702
157 | NCI-H661 | 0.299
158 | NCI-H1734 | 0.424
159 | NCI-H460 | 0.322
160 | NCI-H2347 | 0.557
